Data on 16 compounds can be found in patent publication US10022352B2, “Modulators of ATP-binding cassette transporters” (Vertex Pharmaceuticals Incorporated, priority 2006, dated 2018).

Like-named read-outs stand apart in the source and are kept apart here. Where only a bound is given, the exact number is not on record here.

One data set has as its target ΔF508-CFTR (Homo sapiens (Human), UniProt P13569, DEL508-508). In words: Membrane potential optical assay, identification of correction compounds. Type of data set: cell-based. The text has this: Membrane potential optical methods for assaying ΔF508-CFTR modulation properties of compounds.
The assay utilizes fluorescent voltage sensing dyes to measure changes in membrane potential using a fluorescent plate reader (e.g., FLIPR II, Molecular Devices, Inc.) as a readout for increase in functional ΔF508-CFTR in NIH 3T3 cells. The driving force for the response is the creation of a chloride ion gradient in conjunction with channel activation by a single liquid addition step after the cells have previously been treated with compounds and subsequently loaded with a voltage sensing dye.
Identification of Correction Compounds
To identify small molecules that correct the trafficking defect associated with ΔF508-CFTR; a single-addition HTS assay format was developed. Assay Plates containing cells are incubated for ˜2-4 hours in tissue culture incubator at 37° C., 5% CO2, 90% humidity. Cells are then ready for compound exposure after adhering to the bottom of the assay plates.
The cells were incubated in serum-free medium for 16-24 hrs in tissue culture incubator at 37° C., 5% CO2, 90% humidity in the presence or absence (negative control) of test compound. The cells were subsequently rinsed 3× with Krebs Ringers solution and loaded with a voltage sensing redistribution dye. To activate ΔF508-CFTR, 10 μM forskolin and the CFTR potentiator, genistein (20 μM), were added along with Cl^−-free medium to each well. The addition of Cl^−-free medium promoted Cl^− efflux in response to ΔF508-CFTR activation and the resulting membrane depolarization was optically monitored using voltage sensor dyes.
Bath #1: (in mM) NaCl 160, KCl 4.5, CaCl2 2, MgCl2 1, HEPES 10, pH 7.4 with NaOH.
free bath solution: Chloride salts in Bath Solution #1 are substituted with gluconate salts.
NIH3T3 fibroblasts stably expressing ΔF508-CFTR are used for optical measurements of membrane potential. The cells are maintained at 37° C. in 5% CO2 and 90% humidity in Dulbecco's modified Eagle's medium supplemented with 2 mM glutamine, 10% fetal bovine serum, 1×NEAA, β-ME, 1× pen/strep, and 25 mM HEPES in 175 cm^2 culture flasks. For all optical assays, the cells were seeded at ˜20,000/well in 384-well matrigel-coated plates and cultured for 2 hrs at 37° C. before culturing at 27° C. for 24 hrs. for the potentiator assay. For the correction assays, the cells are cultured at 27° C. or 37° C. with and without compounds for 16-24 hours. Electrophysiological Assays for assaying ΔF508-CFTR modulation properties of compounds.

A short description of another data set: Solubility in water. The data set is classed as physicochemical.

ΔF508-CFTR, sequence (P13569 other isoform, or with tags, fused parts or gaps del F508-F508): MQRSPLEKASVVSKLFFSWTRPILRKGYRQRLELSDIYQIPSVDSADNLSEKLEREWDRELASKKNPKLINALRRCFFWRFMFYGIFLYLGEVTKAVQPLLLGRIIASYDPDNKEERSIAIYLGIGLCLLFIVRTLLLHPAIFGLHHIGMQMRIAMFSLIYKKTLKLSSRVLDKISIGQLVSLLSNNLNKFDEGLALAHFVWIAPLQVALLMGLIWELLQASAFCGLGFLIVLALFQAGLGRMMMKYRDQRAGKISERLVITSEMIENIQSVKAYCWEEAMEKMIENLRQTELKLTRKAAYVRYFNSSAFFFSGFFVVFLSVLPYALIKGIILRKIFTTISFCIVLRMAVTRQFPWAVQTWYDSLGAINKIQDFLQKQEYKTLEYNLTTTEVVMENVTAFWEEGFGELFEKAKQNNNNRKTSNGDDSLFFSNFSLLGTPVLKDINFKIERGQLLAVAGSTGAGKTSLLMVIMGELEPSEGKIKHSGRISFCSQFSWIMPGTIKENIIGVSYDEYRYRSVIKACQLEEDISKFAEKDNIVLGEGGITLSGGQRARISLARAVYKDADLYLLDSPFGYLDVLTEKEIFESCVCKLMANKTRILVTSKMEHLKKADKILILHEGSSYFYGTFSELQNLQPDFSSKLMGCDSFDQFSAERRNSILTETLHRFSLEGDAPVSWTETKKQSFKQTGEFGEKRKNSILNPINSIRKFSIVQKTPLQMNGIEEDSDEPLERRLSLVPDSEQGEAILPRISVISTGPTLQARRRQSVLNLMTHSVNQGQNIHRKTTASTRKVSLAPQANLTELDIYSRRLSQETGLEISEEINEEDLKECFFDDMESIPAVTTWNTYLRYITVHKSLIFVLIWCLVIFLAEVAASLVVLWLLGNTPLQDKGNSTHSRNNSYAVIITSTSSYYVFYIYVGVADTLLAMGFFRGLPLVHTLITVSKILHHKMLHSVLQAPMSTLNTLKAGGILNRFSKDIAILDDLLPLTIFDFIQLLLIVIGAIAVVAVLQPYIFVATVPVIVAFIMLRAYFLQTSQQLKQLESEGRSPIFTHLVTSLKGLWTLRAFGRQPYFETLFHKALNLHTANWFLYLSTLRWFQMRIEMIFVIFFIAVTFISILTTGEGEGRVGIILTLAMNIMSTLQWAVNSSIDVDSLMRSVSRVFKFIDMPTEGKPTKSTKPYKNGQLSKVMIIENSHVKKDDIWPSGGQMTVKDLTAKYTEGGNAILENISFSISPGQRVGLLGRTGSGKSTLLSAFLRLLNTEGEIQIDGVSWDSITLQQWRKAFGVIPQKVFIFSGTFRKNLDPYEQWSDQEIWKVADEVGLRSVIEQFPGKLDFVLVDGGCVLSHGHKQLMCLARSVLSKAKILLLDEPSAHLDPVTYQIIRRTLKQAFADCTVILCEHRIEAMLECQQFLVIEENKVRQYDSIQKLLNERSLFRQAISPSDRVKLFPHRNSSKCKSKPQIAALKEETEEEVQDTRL

In the case of `COc1ccc(C2(C(=O)Nc3ccc4[nH]c(C(C)(C)C)cc4c3)CC2(C)C)cc1` (stereo not shown) [Compound 317], the results for the EC50 on ΔF508-CFTR (read-out: Binned EC50) and on ΔF508-CFTR (read-out: EC50) were 2000 to 5000 nM and 4520 nM, respectively. Also, the Emax on ΔF508-CFTR (read-out: Binned Max Efficacy) was 25 to 100%; on ΔF508-CFTR (read-out: Max Efficacy), 65.5%.

Regarding `CC(C)(CCOC[C@@H](O)CO)c1cc2cc(NC(=O)C3(c4ccc5c(c4)OC(F)(F)O5)CC3)c(F)cc2n1C[C@@H](O)CO` [Compound 308], the EC50 was 2000 to 5000 nM on ΔF508-CFTR (read-out: Binned EC50) and 3100 nM on ΔF508-CFTR (read-out: EC50). Further, the Emax on ΔF508-CFTR (read-out: Binned Max Efficacy) was more than 100%; on ΔF508-CFTR (read-out: Max Efficacy), 100%.

In the case of `CC(C)(CCOC[C@@H](O)CO)c1cc2cc(NC(=O)C3(c4ccc5c(c4)OC(F)(F)O5)CC3)c(F)cc2[nH]1` [Compound 316], the EC50 on ΔF508-CFTR (read-out: Binned EC50) was less than 2000 nM; on ΔF508-CFTR (read-out: EC50) it was 285 nM. In addition, the Emax is more than 100% on ΔF508-CFTR (read-out: Binned Max Efficacy) and 126% on ΔF508-CFTR (read-out: Max Efficacy).

The compound `CC(C)(C)c1cc(C(C)(C)C)c(NC(=O)c2c[nH]c3ccccc3c2=O)cc1O` [Compound B, N-(2,4-di-tert-butyl-5-hydroxyphenyl)-4-oxo-1,4-dihydroquinoline-3-carboxamide] yielded a solubility in the data set “Solubility in water” of less than 0.05 µg/mL.

As to `CC(C)(C)c1cc2c(C#N)c(NC(=O)C3(c4ccc5c(c4)OC(F)(F)O5)CC3)ccc2[nH]1` [Compound 313], the EC50 at ΔF508-CFTR (read-out: Binned EC50) is less than 2000 nM; at ΔF508-CFTR (read-out: EC50) it was 284 nM. The Emax on ΔF508-CFTR (read-out: Binned Max Efficacy) is more than 100%; at ΔF508-CFTR (read-out: Max Efficacy), 102%.

`CC(C)(CO)c1cc2cc(NC(=O)C3(c4ccc5c(c4)OC(F)(F)O5)CC3)c(F)cc2n1C[C@@H](O)CO` [Compound 315]: the EC50 on ΔF508-CFTR (read-out: Binned EC50) was less than 2000 nM; at ΔF508-CFTR (read-out: EC50), 272 nM. Moreover, the results for the Emax on ΔF508-CFTR (read-out: Binned Max Efficacy) and on ΔF508-CFTR (read-out: Max Efficacy) were more than 100% and 106%, respectively.

For the compound `CC(C)(CCO)c1cc2cc(NC(=O)C3(c4ccc5c(c4)OC(F)(F)O5)CC3)c(F)cc2n1C[C@@H](O)CO` [Compound 311], the EC50 on ΔF508-CFTR (read-out: Binned EC50) was less than 2000 nM; on ΔF508-CFTR (read-out: EC50), 81.8 nM. Further, the Emax on ΔF508-CFTR (read-out: Binned Max Efficacy) was more than 100%; at ΔF508-CFTR (read-out: Max Efficacy) it was 126%.

With `CN(C)CCn1c(C(C)(C)C)cc2cc(NC(=O)C3(c4ccc5c(c4)OC(F)(F)O5)CC3)c(F)cc21` [Compound 309], on ΔF508-CFTR, the “Binned Max Efficacy” value was “+++ (“+++” means >100%)” and the “Max Efficacy” value amounted to 122%. Also, at ΔF508-CFTR (read-out: Binned EC50), the EC50 was less than 2000 nM. Moreover, the EC50 on ΔF508-CFTR (read-out: EC50) is 38.1 nM.

For `CC(C)(C)c1cc2cc(NC(=O)C3(c4ccc5c(c4)OCO5)CC3)c(F)cc2n1C[C@@H](O)CO` [Compound 318], the results for the EC50 on ΔF508-CFTR (read-out: Binned EC50) and on ΔF508-CFTR (read-out: EC50) were less than 2000 nM and 65.9 nM, respectively. The values for the Emax at ΔF508-CFTR (read-out: Binned Max Efficacy) and at ΔF508-CFTR (read-out: Max Efficacy) were more than 100% and 132%, respectively.

On to `CC(C)(C)c1cc2cc(NC(=O)C3(c4ccc5c(c4)OCO5)CC3)c(F)cc2n1C[C@@H](O)CO` [Compound 310], for which, on ΔF508-CFTR, the “Binned Max Efficacy” value is reported as “+++ (“+++” means >100%)”. Also, at ΔF508-CFTR, the “Max Efficacy” value stood at 120.5%. The EC50 at ΔF508-CFTR (read-out: Binned EC50) was less than 2000 nM; at ΔF508-CFTR (read-out: EC50), 160 nM.

On to `CC(C)(C)c1cc2c(C#N)c(NC(=O)C3(c4ccc5c(c4)OC(F)(F)O5)CC3)ccc2n1CCO` [Compound 312], for which the EC50 at ΔF508-CFTR (read-out: Binned EC50) is less than 2000 nM; on ΔF508-CFTR (read-out: EC50), 181 nM. Further, the figures for the Emax on ΔF508-CFTR (read-out: Binned Max Efficacy) and on ΔF508-CFTR (read-out: Max Efficacy) were more than 100% and 118%, respectively.

`CC(C)(C)c1cc2cc(NC(=O)C3(c4ccc(O)c(O)c4)CC3)ccc2n1C[C@@H](O)CO` [Compound 321]: the values for the EC50 on ΔF508-CFTR (read-out: Binned EC50) and at ΔF508-CFTR (read-out: EC50) were less than 2000 nM and 1810 nM, respectively. The Emax at ΔF508-CFTR (read-out: Binned Max Efficacy) was 25 to 100%; on ΔF508-CFTR (read-out: Max Efficacy), 76%.

Turning to `COc1ccc(C2(C(=O)Nc3ccc4c(c3)cc(C(C)(C)C)n4C[C@@H](O)CO)CC2(C)C)cc1` (stereo partly shown) [Compound 319], the results for the EC50 on ΔF508-CFTR (read-out: Binned EC50) and on ΔF508-CFTR (read-out: EC50) were less than 2000 nM and 39.1 nM, respectively. For the same compound, the Emax is more than 100% on ΔF508-CFTR (read-out: Binned Max Efficacy) and 126% on ΔF508-CFTR (read-out: Max Efficacy).

Turning to `CC(C)(CO)c1cc2cc(NC(=O)C3(c4ccc5c(c4)OC(F)(F)O5)CC3)c(F)cc2[nH]1` [Compound 320], the EC50 was 2000 to 5000 nM at ΔF508-CFTR (read-out: Binned EC50) and 4320 nM on ΔF508-CFTR (read-out: EC50). The results for the Emax on ΔF508-CFTR (read-out: Binned Max Efficacy) and at ΔF508-CFTR (read-out: Max Efficacy) were 25 to 100% and 94%, respectively.

With `CC(C)(C)c1cc2cc(NC(=O)C3(c4ccc5c(c4)CCC5)CC3)ccc2n1C[C@@H](O)CO` [Compound 307], the EC50 on ΔF508-CFTR (read-out: Binned EC50) is less than 2000 nM; on ΔF508-CFTR (read-out: EC50) it was 981 nM. Further, the values for the Emax at ΔF508-CFTR (read-out: Binned Max Efficacy) and at ΔF508-CFTR (read-out: Max Efficacy) were more than 100% and 160%, respectively.

For the compound `CC1(C)CCn2c1cc1cc(NC(=O)C3(c4ccc5c(c4)OC(F)(F)O5)CC3)c(F)cc12` [Compound 314], the EC50 is less than 2000 nM on ΔF508-CFTR (read-out: Binned EC50) and 228 nM on ΔF508-CFTR (read-out: EC50). For the same compound, the values for the Emax on ΔF508-CFTR (read-out: Binned Max Efficacy) and on ΔF508-CFTR (read-out: Max Efficacy) were more than 100% and 124%, respectively.

The EC50 is the concentration needed to bring the measured effect to its halfway point. As a reminder, the solubility is how much of the substance goes into solution per volume. The low end stands for little dissolved substance, the high end for much dissolved substance.
